The source of these data is patent US5214055A, “Aminopiperidine 4-oxo-4H-chromen-2-yl compounds” (Adir et Compagnie, priority 1990, dated 1993).

One test has as its target T1, 5HT1A receptor (Rattus norvegicus, UniProt P19327).
T1 construct: Subcutaneous injection of rats with 8-OH-DPAT spontaneously induces tail movements; from tissue; host or cells: whole living rat (in vivo)
T1 sequence (P19327 1-422): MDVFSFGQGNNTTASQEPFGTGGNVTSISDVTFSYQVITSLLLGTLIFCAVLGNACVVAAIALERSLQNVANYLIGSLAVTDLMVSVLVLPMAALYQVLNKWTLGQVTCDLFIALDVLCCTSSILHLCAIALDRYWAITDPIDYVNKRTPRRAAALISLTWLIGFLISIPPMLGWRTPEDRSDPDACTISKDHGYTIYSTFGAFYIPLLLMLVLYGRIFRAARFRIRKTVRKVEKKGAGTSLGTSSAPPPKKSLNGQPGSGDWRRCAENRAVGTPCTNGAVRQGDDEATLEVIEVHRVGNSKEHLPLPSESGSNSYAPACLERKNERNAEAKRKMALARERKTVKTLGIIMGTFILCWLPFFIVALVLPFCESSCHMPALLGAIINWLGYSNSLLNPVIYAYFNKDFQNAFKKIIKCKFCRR
The test can be described thus: "Tail-Flicks" test on rats (reduction of 8-OH-DPAT induced tail movements). In kind it is in vivo. The settings on record: sc, tail movements induced by subcutaneous 8-OH-DPAT, read-out: ED50 (amount that reduces 8-OH-DPAT action by 50%). An excerpt: a) "Tail-Flicks" test on rats
Subcutaneous injection of rats with 8-OH-DPAT spontaneously induces tail movements ("Tail-Flicks"). These movements are reduced in a specific manner by 5HT1A receptor antagonists. The ED50 values, that is to say those amounts of the compounds of the invention that reduce 8-OH-DPAT action by 50%, are listed in Table II.

The target of the next test is sigma receptor. Put plainly: Sigma binding test (in vitro), inhibition of [3H] ditolylguanidine binding. On the set-up: species or system guinea pig. The method, then: b) Sigma binding test (in vitro)
The affinity of the compounds of the invention to the sigma receptor in brain tissue is evaluated by the degree of inhibition of the binding of a sigma site radioligand in in vitro competition experiments.
The experiment protocol used is that described by WEBER et at. Proc. Nat. Acad. Sci. USA, (1986), 83, 8784-8788.
The ligand is 1,2-di-(2-[5-^3 H]tolyl)guanidine (Dupont de Nemours--55 Ci/mmol) at a final concentration of 2 nM.
The membrane preparation is a suspension of central nervous system microsomes of a guinea pig used at a final concentration of 0.5 mg of prot/ml.
The non-specific fixation is determined in the presence of 10 μM of haloperidol.
The results, given in Table III, to illustrate the invention are expressed at IC50 =K.0.5 (M)

The mark [1] stands for this setting: guinea pig central nervous system microsomes, 0.5 mg of prot/ml, ligand 2 nM, non-specific: 10 μM haloperidol.

Structures can show the parent of a compound that is named as a salt. Where two headings read alike, the source gives them in different places.

With `C=COC(=O)N(C)C1CCN(CC2Cc3ccccc32)CC1` (racemic) [Example 42, (R,S)-vinyl N-[1-(benzocyclobuten-1ylmethyl)-piperid-4-yl]-N-methylcarbamate hydrochlo ride], the ED50 at 5HT1A receptor worked out at 1.25 mg/kg. Moreover, the IC50 at sigma receptor (setting [1]) was 50 nM.
Take `COC(=O)N(C)C1CCN(CC2Cc3ccccc32)CC1` (stereo not drawn) [Example 8, Methyl [1-benzocyclobuten-1-ylmethyl)-piperid-4-yl]-N-methylcarbamate hydrochloride]: on 5HT1A receptor, the ED50 was determined as 1.25 mg/kg.
Take `CCCOC(=O)N(C)C1CCN(CC2Cc3ccccc32)CC1` (stereo not drawn) [Example 9, Propyl N-[1-(benzocyclobuten-1-ylmethyl)-piperid-4-yl]-N-methylcarbamate hydrochloride]: the ED50 on 5HT1A receptor was 0.31 mg/kg. The same molecule showed an IC50 on sigma receptor (setting [1]) of 30 nM.
Consider `CN(C(=O)OC(C)(C)C)C1CCN(CC2Cc3ccccc32)CC1` (stereo not drawn) [Example 11, Tert-butyl N-[1-(benzocyclobuten-1-ylmethyl)-piperid-4-yl]-N-methylcarbamate hydrochl oride], for which the ED50 on 5HT1A receptor came out at 2.5 mg/kg.
At sigma receptor, `CN(C(=O)Oc1ccccc1)C1CCN(CC2Cc3ccccc32)CC1` (stereo not drawn) [Example 12, Phenyl N-[1-(benzocyclobuten-1-ylmethyl)-piperid-4-yl]-N-methylcarbamate hydrochloride] showed a concentration for half-maximal inhibition (IC50) of 30 nM.
With `CCOC(=O)N(CC)C1CCN(CC2Cc3ccccc32)CC1` (stereo not drawn) [Example 13, Ethyl N-[1-(benzocyclobuten-1-ylmethyl)-piperid-4-yl]-N-ethylcarbamate hydrochloride], the ED50 at 5HT1A receptor was found to be 1.25 mg/kg.
On the same count and under the same terms, the figure for `CCN(C(=O)OC)C1CCN(CC2Cc3ccccc32)CC1` (stereo not drawn) [Example 14, Methyl N-[1-(benzocyclobuten-1-ylmethyl)-piperid-4-yl]-N-ethylcarbamate hydrochloride] is 0.02 mg/kg.
On to `CC(C)COC(=O)N(C)C1CCN(CC2Cc3ccccc32)CC1` (stereo not drawn) [Example 15, Isobutyl N-[1-(benzocyclobuten-1-ylmethyl)-piperid-4-yl]-N-methylcarbamate fumarate], for which the median effective dose (ED50) at 5HT1A receptor turned out to be 1.25 mg/kg. At sigma receptor (setting [1]), the IC50 was 100 nM.
Take `CN(C(=O)OCc1ccccc1)C1CCN(CC2Cc3ccccc32)CC1` (stereo not drawn) [Example 19, Benzyl N-[1-(benzocyclobuten-1-ylmethyl)-piperid-4-yl]-N-methylcarbamate hydrochloride]: the half-inhibitory concentration (IC50) at sigma receptor (setting [1]) was 30 nM.
Consider `CCN(C(C)=O)C1CCN(CC2Cc3ccccc32)CC1` (stereo not drawn) [Example 21, N-[1-(benzocyclobuten-1-ylmethyl)-piperid-4-yl]-N-ethylacetamide hydrochloride], for which the 50% effective dose (ED50) at 5HT1A receptor is 0.63 mg/kg.
Still for that read-out and setting: the figure for `CCOC(=O)N(C)C1CCN(CC2Cc3ccccc32)CC1` (stereo not drawn) [Example 23, Ethyl N-[1-(benzocyclobuten-1-ylmethyl)-piperid-4-yl]-N-methylcarbamate hydrochloride] is 2.5 mg/kg; for `CCOC(=O)N(C)C1CCN(CC2Cc3c2ccc2c3OCO2)CC1` (stereo not drawn) [Example 28, Ethyl N-{1-[(3,4-methylenedioxybenzocyclobuten-1-yl)methyl[-piperid-4-yl}-N-methylcarbamate fumarate] it is 2.5 mg/kg.
On to `CC(C)COC(=O)N(C)C1CCN(C2Cc3ccccc3C2)CC1` [Example 43, Isobutyl N-[1-(indan-2-yl)-piperid-4-yl]-N-methylcarbamate fumarate], for which the IC50 on sigma receptor (setting [1]) is 4 nM.
As to `CCCOC(=O)N(C)C1CCN(C2Cc3ccccc3C2)CC1` [Example 44, Propyl N-[1-(indan-2-yl)-piperid-4-yl]-N-methylcarbamate], the ED50 on 5HT1A receptor turned out to be 2.5 mg/kg. Besides, at sigma receptor (setting [1]), the IC50 is 40 nM.

The term ED50 denotes the dose at which the effect has come halfway, by size or by number of responders. The term IC50 denotes the midpoint of a concentration-inhibition curve. A low value points to higher potency.
